Key:
[1] = molecular target: T1, FSHR (Homo sapiens, UniProt P23945); assay: EC50 of Cyclic AMP Production in CHO FSHR Cells+EC20 FSH (Assay A); type: cell-based; conditions: for EC50: cAMP HTRF
T1 construct: expressed in transfected cells; host or cells: CHO (Cho-FSHR-LUC-1-1-43)
T1 sequence (P23945 18-695): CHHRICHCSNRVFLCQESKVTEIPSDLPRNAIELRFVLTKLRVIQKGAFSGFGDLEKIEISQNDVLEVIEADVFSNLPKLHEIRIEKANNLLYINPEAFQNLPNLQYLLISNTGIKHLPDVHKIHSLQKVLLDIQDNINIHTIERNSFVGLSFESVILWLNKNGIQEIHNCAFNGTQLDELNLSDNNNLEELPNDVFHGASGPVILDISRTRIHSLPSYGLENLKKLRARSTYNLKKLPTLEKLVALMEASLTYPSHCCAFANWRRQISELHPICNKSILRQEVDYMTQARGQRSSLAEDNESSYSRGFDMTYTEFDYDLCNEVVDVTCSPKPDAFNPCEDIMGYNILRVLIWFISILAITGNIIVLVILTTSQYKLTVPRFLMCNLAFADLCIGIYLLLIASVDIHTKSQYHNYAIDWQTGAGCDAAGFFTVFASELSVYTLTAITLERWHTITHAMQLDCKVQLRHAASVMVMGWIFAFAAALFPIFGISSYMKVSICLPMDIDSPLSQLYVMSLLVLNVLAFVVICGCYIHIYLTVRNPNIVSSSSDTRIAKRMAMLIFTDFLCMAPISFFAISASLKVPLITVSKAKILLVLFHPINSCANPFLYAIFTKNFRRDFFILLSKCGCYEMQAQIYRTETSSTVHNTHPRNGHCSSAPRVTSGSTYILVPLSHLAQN
Protocol: Example 17: EC50 of Cyclic AMP Production in CHO FSHR Cells+EC20 FSH (Assay A)
2500 Cho-FSHR-LUC-1-1-43 cells were plated per well in 5 μl of phenol red free DMEM/F12+1% FBS. Cells were plated in 384 well, solid white low volume plates (Greiner 784075) by Multidrop. Cells were assayed by adding 100 μl of 2×EC20 FSH/IBMX in DMEM/F12+0.1% BSA) by Multidrop to 2 μl of test compound stamped in 384 well plates (compounds are diluted 1:50). The final FSH concentration was […], and the final IBMX concentration was 200 μM. The compound plate map was as follows: Column 1: 2 μl of DMSO; Column 2: 2 μl of DMSO; Columns 3-12 and 13-24: 2 μl of test compound, diluted 1:4 in 100% DMSO, or 2 μl of FSH, diluted 1:4 in DMEM/F12+0.1% BSA. The starting concentration for FSH was 50 nM (final concentration was 0.5 nM). Furthermore, Column 23 contained 2 μl of EC100 FSH reference (100×) (diluted in DMEM/F12+0.1% BSA) at a final concentration of 0.5 nM, and Column 24 contained 2 μl of 1 mM AS707664/2 reference compound 2.5 μl of compound+EC20 FSH mixture were transferred to cell plates (1:2 dilution into 5 μl of cell media) The plates were incubated at 37° C. for 1 h. 10 μl of mixed HTRF (CisBio #62AM4PEC) reagents were added per well and incubated at room temperature for 1 h. The plates were read on Envision using the cAMP HTRF—low volume 384 well protocol. The readout was the calculated fluorescence ratio (665 nm/620 nm). Values given in percent (%) indicate the percental effect (response) at a certain concentration of agonist relative to the maximum response of the FSH standard.

[2] = test system: Rat Granulosa; assay: Rat Granulosa EC50 FSH (Assay B); type: cell-based; conditions: rat granulosa cells
Protocol: Example 18: Rat Granulosa EC50 FSH (Assay B)
The assay was performed pursuant to the teaching of Yanofsky et al. (2006) Allosteric activation of the follicle-stimulating hormone (FSH) receptor by selective, nonpeptide agonists. JBC 281(19): 13226-13233, which is incorporated by reference in the disclosure of the invention.

| EC50 [1] [nM] | EC50 [2] [nM] | Compound | other results |
| --- | --- | --- | --- |
| 1000 to 5000 |  | Cc1ccccc1N1CCN(c2c(NC(=O)c3coc(C4CC4)n3)cc(C(=O)NCCCN3CCCC3=O)cc2C(F)(F)F)CC1 |  |
| < 100 | 100 to 1000 | Cc1ccccc1N1CCN(c2cc(Cl)c(C(=O)NCCCN3CCCC3=O)cc2NC(=O)c2coc(C3CC3)n2)CC1 |  |
| < 100 | 1000 to 5000 | COc1cc(N2CCN(c3ccccc3C)CC2)c(NC(=O)c2coc(C3CC3)n2)cc1C(=O)NCCCN1CCCC1=O |  |
| 100 to 1000 |  | Cc1ccccc1N1CCN(c2cc(O)c(C(=O)NCCCN3CCCC3=O)cc2NC(=O)c2coc(C3CC3)n2)CC1 |  |
| < 100 |  | Cc1ccccc1N1CCN(c2cc3c(cc2NC(=O)c2coc(C4CC4)n2)C(=O)N(CCCN2CCCC2=O)CC3)CC1 | Assay B: percental effect (response) ([2]; @ 5 μM): 133% @ 5 μM |
| 100 to 1000 |  | Cc1ccccc1N1CCN(c2cc(F)c(C(=O)NCCCN3CCCC3=O)cc2NC(=O)c2coc(C3CC3)n2)CC1 |  |
| 100 to 1000 |  | Cc1ccc(C)c(N2CCN(c3cc(Cl)c(C(=O)NCCCN4CCCC4=O)cc3NC(=O)c3coc(C4CC4)n3)CC2)c1 |  |
| 1000 to 5000 |  | Cc1ccccc1N1CCN(c2cc(C3CC3)c(C(=O)NCCCN3CCCC3=O)cc2NC(=O)c2ccco2)CC1 |  |
| 100 to 1000 |  | Cc1ccccc1N1CCN(c2cc(C3CC3)c(C(=O)NCCCN3CCCC3=O)cc2NC(=O)c2coc(C3CC3)n2)CC1 |  |
| 100 to 1000 | 100 to 1000 | CCc1cc(N2CCN(c3ccccc3C)CC2)c(NC(=O)c2coc(C3CC3)n2)cc1C(=O)NCCCN1CCCC1=O |  |
| 1000 to 5000 |  | Cc1ccccc1N1CCN(c2cc(N(C)C)c(C(=O)NCCCN3CCCC3=O)cc2NC(=O)c2ccco2)CC1 |  |
| 100 to 1000 | 100 to 1000 | Cc1ccccc1N1CCN(c2cc(N(C)C)c(C(=O)NCCCN3CCCC3=O)cc2NC(=O)c2coc(C3CC3)n2)CC1 |  |
| 100 to 1000 | 100 to 1000 | COCCOc1cc(N2CCN(c3ccccc3C)CC2)c(NC(=O)c2coc(C3CC3)n2)cc1C(=O)NCCCN1CCCC1=O |  |
| < 100 | 100 to 1000 | CCOc1cc(N2CCN(c3ccccc3C)CC2)c(NC(=O)c2coc(C3CC3)n2)cc1C(=O)NCCCN1CCCC1=O |  |
| 1000 to 5000 |  | CCOc1cc(N2CCN(c3ccccc3C)CC2)c(NC(=O)c2ccco2)cc1C(=O)NCCCN1CCCC1=O |  |
| < 100 | 100 to 1000 | Cc1ccccc1N1CCN(c2cc(Cl)c(C(=O)NCCCN3CCOC3=O)cc2NC(=O)c2coc(C3CC3)n2)CC1 |  |
| 100 to 1000 |  | Cc1ccc(F)cc1N1CCN(c2cc(Cl)c(C(=O)NCCCN3CCCC3=O)cc2NC(=O)c2coc(C3CC3)n2)CC1 |  |
| 100 to 1000 |  | Cc1ccccc1N1CCN(c2cc(C(F)(F)F)c(C(=O)NCCCN3CCCC3=O)cc2NC(=O)c2coc(C3CC3)n2)CC1 |  |
| < 100 | 100 to 1000 | Cc1cccnc1N1CCN(c2cc(Cl)c(C(=O)NCCCN3CCOC3=O)cc2NC(=O)c2coc(C3CC3)n2)CC1 |  |
| 100 to 1000 | 1000 to 5000 | Cc1ccccc1N1CCN(c2cc(Cl)c(C(=O)NCCCc3nnn(C)n3)cc2NC(=O)c2coc(C3CC3)n2)CC1 |  |
| 100 to 1000 | 100 to 1000 | Cc1ccccc1N1CCN(c2cc(Cl)c(C(=O)NCCCc3nnnn3C)cc2NC(=O)c2coc(C3CC3)n2)CC1 |  |
| 100 to 1000 |  | Cc1ccccc1N1CCN(c2cc(Cl)c(C(=O)NCCC(C)(C)C(=O)O)cc2NC(=O)c2coc(C3CC3)n2)CC1 | Assay B: percental effect (response) ([2]; @ 25 μM): 46% @ 25 μM |
| 100 to 1000 | 1000 to 5000 | Cc1ccccc1N1CCN(c2cc(F)c(C(=O)NCCCN3CCOC3=O)cc2NC(=O)c2coc(C3CC3)n2)CC1 |  |
| < 100 | 100 to 1000 | Cc1ccccc1N1CCN(c2cc3c(cc2NC(=O)c2coc(C4CC4)n2)C(=O)N(CCCN2CCOC2=O)CC3)CC1 |  |

The next lines start with the compound.

| Compound | EC50 [1] [nM] | EC50 [2] [nM] | other results |
| --- | --- | --- | --- |
| Cc1ccccc1N1CCN(c2c(NC(=O)c3ccco3)cc(C(=O)NCCCN3CCCC3=O)cc2C(F)(F)F)CC1 |  |  | Emax at 3 µM ([1]; @ 3 μM, read-out: Assay A: percental effect (response) relative to the maximum response of the FSH standard): 39% |
| Cc1ccc(C)c(N2CCN(c3cc(Cl)c(C(=O)NCc4cccc(CN(C)C)c4)cc3NC(=O)c3coc(C4CC4)n3)CC2)c1 | 1000 to 5000 |  |  |
| Cc1ccccc1N1CCN(c2cc(Cl)c(C(=O)NCc3cccc(CN(C)C)c3)cc2NC(=O)c2ccco2)CC1 | > 5000 |  |  |
| Cc1ccc(C(=O)Nc2cc(C(=O)NCCCN3CCOC3=O)c(Cl)cc2N2CCN(c3ccccc3C)CC2)o1 | 100 to 1000 |  |  |
| Cc1ccccc1N1CCN(c2cc3c(cc2NC(=O)c2ccco2)C(=O)N(Cc2cccc(CN(C)C)c2)CC3)CC1 | 1000 to 5000 |  |  |
| Cc1ccc(F)cc1N1CCN(c2cc(Cl)c(C(=O)NCc3cccc(CN(C)C)c3)cc2NC(=O)c2ccco2)CC1 | 1000 to 5000 |  |  |
| Cc1ccccc1N1CCN(c2cc(Cl)c(C(=O)N[C@H]3CCC[C@H](O)[C@@H]3O)cc2NC(=O)c2coc(C3CC3)n2)CC1 | < 100 | 1000 to 5000 |  |
| Cc1ccccc1N1CCN(c2cc(F)c(C(=O)N[C@H]3CCC[C@H](C(=O)OC(C)(C)C)C3)cc2NC(=O)c2coc(C3CC3)n2)CC1 | 100 to 1000 |  | Assay B: percental effect (response) ([2]; concentration not given): 39% |
| Cc1ccccc1N1CCN(c2cc3c(cc2NC(=O)c2coc(C4CC4)n2)C(=O)N(C2CCC[C@H](O)[C@@H]2O)CC3)CC1 (stereo partly shown) |  | 1000 to 5000 |  |
| Cc1ccccc1N1CCN(c2cc3c(cc2NC(=O)c2coc(C4CC4)n2)C(=O)N([C@H]2CCC[C@H](O)[C@@H]2O)CC3)CC1 | 100 to 1000 |  |  |
| Cc1ccccc1N1CCN(c2cc(F)c(C(=O)N[C@H]3CCC[C@@H](C(=O)OC(C)(C)C)C3)cc2NC(=O)c2coc(C3CC3)n2)CC1 | > 5000 |  | Assay B: percental effect (response) ([2]; concentration not given): 11% |
| Cc1ccccc1N1CCN(c2cc(F)c(C(=O)N[C@@H]3CCC[C@H](C(=O)OC(C)(C)C)C3)cc2NC(=O)c2coc(C3CC3)n2)CC1 | 100 to 1000 | < 100 |  |
| Cc1ccccc1N1CCN(c2cc(F)c(C(=O)N[C@H]3CCC[C@@H](C(=O)O)C3)cc2NC(=O)c2coc(C3CC3)n2)CC1 | < 100 |  |  |
| COC(=O)[C@@H]1CCC[C@H](NC(=O)c2cc(NC(=O)c3coc(C4CC4)n3)c(N3CCN(c4ccccc4C)CC3)cc2F)C1 | 100 to 1000 |  |  |
| Cc1ccccc1N1CCN(c2cc(F)c(C(=O)N[C@@H]3CCC[C@H](C(=O)O)C3)cc2NC(=O)c2coc(C3CC3)n2)CC1 | < 100 |  |  |
| Cc1ccccc1N1CCN(c2cc3ccn(CCCN4CCOC4=O)c(=O)c3cc2NC(=O)c2coc(C3CC3)n2)CC1 | < 100 |  |  |

From patent US10183935B2, “Benzamide derivatives as modulators of the follicle stimulating hormone” (Merck Patent GmbH, priority 2012, dated 2019)
